Source: patent publication US12649750B2, “Macrocyclic compounds, compositions, and methods of using thereof” (Sionna Therapeutics Inc., priority 2022, dated 2026)

Columns and labels:
CFTR = molecular target: T1, CFTR (Homo sapiens, UniProt P13569, DEL508-508); assay: TECC24 AUC fold over DMSO @10 μM, CFTR-mediated transepithelial chloride transport in CF-HBE cells; assay type: cell-based; conditions: test agent AUC divided by DMSO vehicle AUC, primary CF-HBE cells, ΔF508 homozygous donor, 48 hours incubation
T1 construct: Primary human bronchial epithelial cells from a ΔF508 homozygous CF donor; host or cells: primary human bronchial epithelial cells (CF-HBE), ΔF508 homozygous donor
T1 sequence (P13569 with tags, fused parts or gaps DEL508-508): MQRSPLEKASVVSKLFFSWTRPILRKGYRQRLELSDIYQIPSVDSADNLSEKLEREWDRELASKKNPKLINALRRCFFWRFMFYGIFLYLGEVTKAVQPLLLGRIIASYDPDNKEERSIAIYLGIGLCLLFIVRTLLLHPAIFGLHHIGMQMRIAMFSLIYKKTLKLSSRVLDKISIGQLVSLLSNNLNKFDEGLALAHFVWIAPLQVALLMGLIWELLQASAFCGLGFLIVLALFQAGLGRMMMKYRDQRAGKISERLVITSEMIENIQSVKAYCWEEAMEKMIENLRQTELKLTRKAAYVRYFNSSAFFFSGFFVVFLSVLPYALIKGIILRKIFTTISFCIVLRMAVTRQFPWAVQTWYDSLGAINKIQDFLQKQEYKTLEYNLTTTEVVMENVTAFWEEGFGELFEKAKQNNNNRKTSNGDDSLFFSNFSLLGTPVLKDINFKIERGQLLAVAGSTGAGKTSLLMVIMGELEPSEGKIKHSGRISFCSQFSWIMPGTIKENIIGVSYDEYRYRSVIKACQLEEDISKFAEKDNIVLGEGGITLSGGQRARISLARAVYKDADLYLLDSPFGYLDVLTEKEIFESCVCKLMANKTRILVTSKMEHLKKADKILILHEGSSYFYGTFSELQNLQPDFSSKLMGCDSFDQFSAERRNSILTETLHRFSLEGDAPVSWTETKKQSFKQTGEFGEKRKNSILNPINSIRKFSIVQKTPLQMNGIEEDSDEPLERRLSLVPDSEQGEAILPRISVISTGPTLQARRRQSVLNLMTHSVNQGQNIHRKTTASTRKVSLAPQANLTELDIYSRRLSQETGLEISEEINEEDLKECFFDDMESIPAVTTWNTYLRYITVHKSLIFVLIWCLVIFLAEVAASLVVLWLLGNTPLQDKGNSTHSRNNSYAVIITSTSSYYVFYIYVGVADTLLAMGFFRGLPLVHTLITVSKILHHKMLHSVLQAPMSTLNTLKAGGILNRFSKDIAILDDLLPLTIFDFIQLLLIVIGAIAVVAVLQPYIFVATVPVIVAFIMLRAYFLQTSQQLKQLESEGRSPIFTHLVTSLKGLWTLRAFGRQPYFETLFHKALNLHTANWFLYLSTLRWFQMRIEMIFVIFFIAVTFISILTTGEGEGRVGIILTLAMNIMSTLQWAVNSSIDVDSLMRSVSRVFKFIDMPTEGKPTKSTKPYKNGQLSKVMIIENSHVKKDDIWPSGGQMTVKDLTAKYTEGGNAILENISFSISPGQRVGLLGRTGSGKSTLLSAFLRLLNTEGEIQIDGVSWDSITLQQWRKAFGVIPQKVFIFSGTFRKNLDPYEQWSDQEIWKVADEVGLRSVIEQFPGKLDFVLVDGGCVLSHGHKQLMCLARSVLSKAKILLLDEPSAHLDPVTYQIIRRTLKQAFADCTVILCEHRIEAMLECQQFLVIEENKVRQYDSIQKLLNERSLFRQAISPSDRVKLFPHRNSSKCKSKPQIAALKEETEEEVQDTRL
In short: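 ΔF508-homozygous primary bronchial epithelial cells incubated 48 h at 36.5° C with compound (10 μM) in IL-13-containing medium, then TECC24 current-clamp recording in pH 7.4 Hepes saline with benzamil 10 μM, forskolin 10 μM, then CFTR inhibitor-172 20 μM. Equivalent Cl− current AUC between forskolin and inhibitor, expressed as fold over DMSO.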

NBD1 = molecular target: T2, NBD1 (Homo sapiens, UniProt P13569); assay: Aggregation analysis using differential static light scattering (DSLS), thermal stability of NBD1 (ΔTagg); assay type: binding; conditions: ΔTagg versus DMSO control, NBD1 0.2 mg/ml
T2 construct: Purified recombinant NBD1 was produced using previously described methods; made in house
T2 sequence (P13569 423-646 limits assumed): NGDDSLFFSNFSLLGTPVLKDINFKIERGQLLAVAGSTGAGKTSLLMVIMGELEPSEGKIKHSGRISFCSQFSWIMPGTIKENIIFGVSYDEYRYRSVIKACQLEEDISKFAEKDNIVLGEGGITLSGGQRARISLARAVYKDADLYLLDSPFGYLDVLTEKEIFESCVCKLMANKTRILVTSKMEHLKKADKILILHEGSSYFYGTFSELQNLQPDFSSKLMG
In short: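 Purified recombinant NBD1 at 0.2 mg/ml in Tris buffer pH7.6 with 2 mM ATP, 5 mM MgCl2, 2 mM DTT and 1% glycerol was mixed with DMSO-dissolved compounds under mineral oil. Plates were heated at 1° C. per minute to 70° C., light scattering imaged every 0.5° C.; Tagg from curve inflection, minus DMSO-control mean.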

Compound | TECC (AUC, 10 μM) (CFTR) | DSLS 3D (100 μM ΔT) (NBD1)
CC(Cc1cccc(C2(C)CCS(=O)(=O)CC(C)(C)c3cnn(c3)Cc3c(c(F)cc4[nH]ccc34)Oc3ccc(F)c(c3)-c3nc2nn3C)c1)C(=O)O (stereo not shown) [Compound 110, 3-[3-(24,30-Difluoro-3,6,11,11-tetramethyl-9,9-dioxo-26-oxa-9lambda6-thia-3,4,14,15,21,33-hexazahexacyclo-[25.3.1.12,5.112,15.017,25.018,22]tritriaconta-1(31),2(33),4,12(32),13,17,19,22,24,27,29-undecaen-6-yl)phenyl]-2-methyl-propanoic Acid] | C (a value between 20 and 80 is marked “C”) | B (a value above 5 °C and less than or equal to 10 °C is marked “B”)
Cn1nc2nc1-c1cc(ccc1F)Oc1c(F)cc3[nH]ccc3c1Cn1cc(cn1)C(C)(C)S(=O)(=O)CCCC2(C)c1cccc(CCC(=O)O)c1 (stereo not shown) [Compound 111, 3-[3-(24,30-Difluoro-3,6,11,11-tetramethyl-10,10-dioxo-26-oxa-10λ6-thia-3,4,14,15,21,33-hexazahexacyclo[25.3.1.12,5.112,15.017,25.018,22]-tritriaconta-1(31),2(33),4,12(32),13,17,19,22,24,27,29-undecaen-6-yl)phenyl]propanoic Acid] | B (a value between 12-20 is marked “B”) | C (a value greater than 10 °C and less than or equal to 25 °C is marked “C”)
CC(Cc1cccc(C2(C)CCS(=O)(=O)CCS(=O)(=O)CCc3c(c(F)cc4[nH]ccc34)Oc3ccc(F)c(c3)-c3nc2nn3C)c1)C(=O)O (stereo not shown) [Compound 112, 3-[3-(22,28-Difluoro-3,6-dimethyl-9,9,12,12-tetraoxo-24-oxa-9lambda6,12lambda6-dithia-3,4,19,30-tetrazapentacyclo[23.3.1.12,5.015,23.016,20]triaconta-1(29),2(30),4,15,17,20,22,25,27-nonaen-6-yl)phenyl]-2-methyl-propanoic Acid] | A (a TECC value less than 12 is marked “A”) | B (a value above 5 °C and less than or equal to 10 °C is marked “B”)
CC(Cc1cccc(C2CCCC(C)(C)CS(=O)(=O)CCc3c(c(F)cc4[nH]ccc34)Oc3ccc(F)c(c3)-c3nc2nn3C)c1)C(=O)O (stereo not shown) [Compound 114, 3-[3-(22,28-Difluoro-3,10,10-trimethyl-12,12-dioxo-24-oxa-12λ6-thia-3,4,19,30-tetrazapentacyclo[23.3.1.12,5.015,23.016,20]triaconta-1(29),2(30),4,15,17,20,22,25,27-nonaen-6-yl)phenyl]-2-methyl-propanoic Acid] | B (a value between 12-20 is marked “B”) | C (a value greater than 10 °C and less than or equal to 25 °C is marked “C”)
CC(Cc1cccc(C2(C3SCCS3)CCCC(C)(C)CS(=O)(=O)CCc3c(c(F)cc4[nH]ccc34)Oc3ccc(F)c(c3)-c3nc2nn3C)c1)C(=O)O (stereo not shown) [Compound 115, 3-[3-[6-(1,3-Dithiolan-2-yl)-22,28-difluoro-3,10,10-trimethyl-12,12-dioxo-24-oxa-12λ6-thia-3,4,19,30-tetrazapentacyclo-[23.3.1.12,5.015,23.016,20]triaconta-1(29),2(30),4,15,17,20,22,25,27-nonaen-6-yl]phenyl]-2-methyl-propanoic Acid] | A (a TECC value less than 12 is marked “A”) | C (a value greater than 10 °C and less than or equal to 25 °C is marked “C”)
Cn1nc2nc1-c1cc(ccc1F)Oc1c(F)cc3[nH]cnc3c1CCS(=O)(=O)CC(C)(C)CCCC2(C)c1cccc(CCC(=O)O)c1 (stereo not shown) [Compound 116, 3-[3-(22,28-Difluoro-3,6,10,10-tetramethyl-12,12-dioxo-24-oxa-12λ6-thia-3,4,17,19,30-pentazapentacyclo[23.3.1.12,5.015,23.016,20]triaconta-1(29),2(30),4,15,17,20,22,25,27-nonaen-6-yl)phenyl]propanoic Acid] | A (a TECC value less than 12 is marked “A”) | C (a value greater than 10 °C and less than or equal to 25 °C is marked “C”)
CC(Cc1cccc(C2(C)CCCC(C)(C)CS(=O)(=O)CCc3c(c(F)cc4[nH]ccc34)Oc3cccc(c3)-c3nc2cn3C)c1)C(=O)O (stereo not shown) [Compound 117, 3-[3-(22-Fluoro-3,6,10,10-tetramethyl-12,12-dioxo-24-oxa-12λ6-thia-3,19,30-triazapentacyclo[23.3.1.12,5.015,23.016,20]triaconta-1(29),2(30),4,15,17,20,22,25,27-nonaen-6-yl)phenyl]-2-methyl-propanoic Acid] | C (a value between 20 and 80 is marked “C”) | C (a value greater than 10 °C and less than or equal to 25 °C is marked “C”)
Cn1nc2nc1-c1cc(ccc1F)Oc1c(F)cc3[nH]ccc3c1CCS(=O)(=O)CC(C)(C)CCCC2(C)c1ccc2c(c1)CC(C(=O)O)C2 (stereo not shown) [Compound 128, 5-(22,28-Difluoro-3,6,10,10-tetramethyl-12,12-dioxo-24-oxa-12λ6-thia-3,4,19,30-tetrazapentacyclo[23.3.1.12,5.015,23.016,20]triaconta-1(29),2(30),4,15,17,20,22,25,27-nonaen-6-yl)indane-2-carboxylic Acid] | A (a TECC value less than 12 is marked “A”) | C (a value greater than 10 °C and less than or equal to 25 °C is marked “C”)
CCOC(=O)C(Cc1cccc(C2(C)CCCC(C)(C)CS(=O)(=O)CCc3c(c(F)cc4[nH]ccc34)Oc3ccc(F)c(c3)-c3nc2nn3C)c1)C(F)F (stereo not shown) [Compound 131, Ethyl 2-[[3-(22,28-difluoro-3,6,10,10-tetramethyl-12,12-dioxo-24-oxa-12λ6-thia-3,4,19,30-tetrazapentacyclo[23.3.1.12,5.015,23.016,20]triaconta-1(29),2(30),4,15,17,20,22,25,27-nonaen-6-yl)phenyl]methyl]-3,3-difluoro-propanoate] | B (a value between 12-20 is marked “B”) | A (an ΔTagg value less than or equal to 5 °C is marked “A”)
CC(Cc1cccc(C2(N)CCCC(C)(C)CS(=O)(=O)CCc3c(c(F)cc4[nH]ccc34)Oc3ccc(F)c(c3)-c3nc2nn3C)c1)C(=O)O (stereo not shown) [Compound 138, 3-[3-(6-Amino-22,28-difluoro-3,10,10-trimethyl-12,12-dioxo-24-oxa-12λ6-thia-3,4,19,30-tetrazapentacyclo[23.3.1.12,5.015,23.016,20]triaconta-1(29),2(30),4,15,17,20,22,25,27-nonaen-6-yl)phenyl]-2-methyl-propanoic Acid] | C (a value between 20 and 80 is marked “C”) | C (a value greater than 10 °C and less than or equal to 25 °C is marked “C”)
Cn1nc2nc1-c1cc(ccc1F)Oc1c(F)cc3[nH]ccc3c1CCS(=O)(=O)CC(C)(C)CCCC2(C)c1cccc(O)c1 (stereo not shown) [Compound 154, 3-(22,28-Difluoro-3,6,10,10-tetramethyl-12,12-dioxo-24-oxa-12λ6-thia-3,4,19,30-tetrazapentacyclo[23.3.1.12,5.015,23.016,20]triaconta-1(29),2(30),4,15,17,20,22,25,27-nonaen-6-yl)phenol] | A (a TECC value less than 12 is marked “A”) | B (a value above 5 °C and less than or equal to 10 °C is marked “B”)
C/C(C(=O)O)=C(/C)c1cccc(C2(C)CCCC(C)(C)CS(=O)(=O)CCc3c(c(F)cc4[nH]ccc34)Oc3ccc(F)c(c3)-c3nc2nn3C)c1 (stereo not shown) [Compound 155, (E)-3-[3-(22,28-Difluoro-3,6,10,10-tetramethyl-12,12-dioxo-24-oxa-12λ6-thia-3,4,19,30-tetrazapentacyclo[23.3.1.12,5.015,23.016,20]triaconta-1(29),2(30),4,15,17,20,22,25,27-nonaen-6-yl)phenyl]-2-methyl-but-2-enoic Acid] | A (a TECC value less than 12 is marked “A”) | C (a value greater than 10 °C and less than or equal to 25 °C is marked “C”)
CC(C(=O)O)C(C)c1cccc(C2(C)CCCC(C)(C)CS(=O)(=O)CCc3c(c(F)cc4[nH]ccc34)Oc3ccc(F)c(c3)-c3nc2nn3C)c1 (stereo not shown) [Compound 156, 3-[3-(22,28-Difluoro-3,6,10,10-tetramethyl-12,12-dioxo-24-oxa-12λ6-thia-3,4,19,30-tetrazapentacyclo[23.3.1.12,5.015,23.016,20]triaconta-1(29),2(30),4,15,17,20,22,25,27-nonaen-6-yl)phenyl]-2-methyl-butanoic Acid] | B (a value between 12-20 is marked “B”) | C (a value greater than 10 °C and less than or equal to 25 °C is marked “C”)
COC(=O)C(C)CCc1cccc(C2(C)CCCC(C)(C)CS(=O)(=O)CCc3c(c(F)cc4[nH]ccc34)Oc3ccc(F)c(c3)-c3nc2nn3C)c1 (stereo not shown) [Compound 159, Methyl 4-[3-(22,28-difluoro-3,6,10,10-tetramethyl-12,12-dioxo-24-oxa-12λ6-thia-3,4,19,30-tetrazapentacyclo[23.3.1.12,5.015,23.016,20]triaconta-1(29),2(30),4,15,17,20,22,25,27-nonaen-6-yl)phenyl]-2-methyl-butanoate] | B (a value between 12-20 is marked “B”) | A (an ΔTagg value less than or equal to 5 °C is marked “A”)
